Where two headings read alike, the source gives them in different places.
What was measured:
LCK = LCK (Homo sapiens, UniProt P06239); assay: Protein kinase panel at 1 µM, LCK; format: biochemical
BLK = BLK (Homo sapiens, UniProt P51451); assay: Protein kinase panel at 1 µM, BLK; format: biochemical
[1] = rat
[2] = test system: spontaneous canine B-cell lymphoma; assay: Spontaneous canine B-cell lymphoma; format: in vivo, dog; set-up: key to Outcome: CR: complete response; PR: partial response; PD: progressive disease; SD: stable disease
Experimental: Dogs with spontaneous lymphoma were purchased from the China Agricultural University Veterinary Teaching Hospital, and the study was approved by the institutional animal care and use committee of Shouyao Holdings (approval No. CTA-2014003). The inclusion criterion was a confirmed histologic diagnosis of B-cell lymphoma (on the basis of immunohistochemistry for CD21 and CD79a). SY-1530 capsules (20–40 mg) were administered daily until disease progression. The dogs were re-examined every week for 4 weeks and subsequently biweekly. The sum of the longest diameters of all target lesions was defined as the tumor burden. According to the criteria for evaluation of the response of peripheral nodal lymphoma in dogs developed by the Veterinary Cooperative Oncology Group, the response was classified as complete response, partial response, progressive disease, or stable disease.

[3] = rat, in vivo
HCK = HCK (Homo sapiens, UniProt P08631); assay: Protein kinase panel at 1 µM, HCK; format: biochemical
HCK, sequence (P08631 whole entry): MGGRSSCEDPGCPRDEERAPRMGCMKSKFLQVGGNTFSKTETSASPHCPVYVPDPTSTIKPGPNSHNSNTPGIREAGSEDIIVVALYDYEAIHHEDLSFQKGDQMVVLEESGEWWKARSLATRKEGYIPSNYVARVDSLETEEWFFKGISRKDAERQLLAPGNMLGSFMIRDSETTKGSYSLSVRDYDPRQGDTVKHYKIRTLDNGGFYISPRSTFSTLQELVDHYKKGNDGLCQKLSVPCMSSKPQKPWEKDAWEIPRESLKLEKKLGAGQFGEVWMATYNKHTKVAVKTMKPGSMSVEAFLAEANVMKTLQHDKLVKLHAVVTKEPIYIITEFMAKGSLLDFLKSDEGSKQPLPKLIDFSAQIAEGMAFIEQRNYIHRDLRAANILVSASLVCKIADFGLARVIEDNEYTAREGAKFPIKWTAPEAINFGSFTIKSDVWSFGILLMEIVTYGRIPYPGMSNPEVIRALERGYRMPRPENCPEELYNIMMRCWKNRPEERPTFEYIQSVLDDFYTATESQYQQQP

BMX = BMX (Homo sapiens, UniProt P51813); assay: HTRF kinase assay, BMX
BMX, sequence (P51813 whole entry): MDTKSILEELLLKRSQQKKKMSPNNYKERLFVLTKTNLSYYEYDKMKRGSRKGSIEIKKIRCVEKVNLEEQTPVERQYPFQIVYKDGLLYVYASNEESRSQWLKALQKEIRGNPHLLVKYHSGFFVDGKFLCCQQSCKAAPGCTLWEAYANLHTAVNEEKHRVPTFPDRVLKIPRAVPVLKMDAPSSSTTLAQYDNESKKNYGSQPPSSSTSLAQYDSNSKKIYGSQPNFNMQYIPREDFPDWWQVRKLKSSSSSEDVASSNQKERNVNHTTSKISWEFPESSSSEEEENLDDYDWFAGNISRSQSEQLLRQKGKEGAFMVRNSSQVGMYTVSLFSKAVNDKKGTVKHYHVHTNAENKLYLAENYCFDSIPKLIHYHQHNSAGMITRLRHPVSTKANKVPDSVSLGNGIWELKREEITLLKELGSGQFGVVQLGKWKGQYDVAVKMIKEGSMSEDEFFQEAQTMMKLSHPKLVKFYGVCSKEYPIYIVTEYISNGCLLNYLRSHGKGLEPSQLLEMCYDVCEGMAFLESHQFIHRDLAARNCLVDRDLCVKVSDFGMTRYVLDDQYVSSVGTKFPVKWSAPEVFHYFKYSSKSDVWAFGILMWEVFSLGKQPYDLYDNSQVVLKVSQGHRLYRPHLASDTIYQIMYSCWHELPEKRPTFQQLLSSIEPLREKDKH
Experimental: (§8) Homogeneous time-resolved fluorescence (HTRF) assays were performed with a HTRF® KinEASE™-TK kit (Trevigen).

HER2 = HER2 (Homo sapiens, UniProt P04626); assay: HTRF kinase assay, HER2
HER2, sequence (P04626 23-1255): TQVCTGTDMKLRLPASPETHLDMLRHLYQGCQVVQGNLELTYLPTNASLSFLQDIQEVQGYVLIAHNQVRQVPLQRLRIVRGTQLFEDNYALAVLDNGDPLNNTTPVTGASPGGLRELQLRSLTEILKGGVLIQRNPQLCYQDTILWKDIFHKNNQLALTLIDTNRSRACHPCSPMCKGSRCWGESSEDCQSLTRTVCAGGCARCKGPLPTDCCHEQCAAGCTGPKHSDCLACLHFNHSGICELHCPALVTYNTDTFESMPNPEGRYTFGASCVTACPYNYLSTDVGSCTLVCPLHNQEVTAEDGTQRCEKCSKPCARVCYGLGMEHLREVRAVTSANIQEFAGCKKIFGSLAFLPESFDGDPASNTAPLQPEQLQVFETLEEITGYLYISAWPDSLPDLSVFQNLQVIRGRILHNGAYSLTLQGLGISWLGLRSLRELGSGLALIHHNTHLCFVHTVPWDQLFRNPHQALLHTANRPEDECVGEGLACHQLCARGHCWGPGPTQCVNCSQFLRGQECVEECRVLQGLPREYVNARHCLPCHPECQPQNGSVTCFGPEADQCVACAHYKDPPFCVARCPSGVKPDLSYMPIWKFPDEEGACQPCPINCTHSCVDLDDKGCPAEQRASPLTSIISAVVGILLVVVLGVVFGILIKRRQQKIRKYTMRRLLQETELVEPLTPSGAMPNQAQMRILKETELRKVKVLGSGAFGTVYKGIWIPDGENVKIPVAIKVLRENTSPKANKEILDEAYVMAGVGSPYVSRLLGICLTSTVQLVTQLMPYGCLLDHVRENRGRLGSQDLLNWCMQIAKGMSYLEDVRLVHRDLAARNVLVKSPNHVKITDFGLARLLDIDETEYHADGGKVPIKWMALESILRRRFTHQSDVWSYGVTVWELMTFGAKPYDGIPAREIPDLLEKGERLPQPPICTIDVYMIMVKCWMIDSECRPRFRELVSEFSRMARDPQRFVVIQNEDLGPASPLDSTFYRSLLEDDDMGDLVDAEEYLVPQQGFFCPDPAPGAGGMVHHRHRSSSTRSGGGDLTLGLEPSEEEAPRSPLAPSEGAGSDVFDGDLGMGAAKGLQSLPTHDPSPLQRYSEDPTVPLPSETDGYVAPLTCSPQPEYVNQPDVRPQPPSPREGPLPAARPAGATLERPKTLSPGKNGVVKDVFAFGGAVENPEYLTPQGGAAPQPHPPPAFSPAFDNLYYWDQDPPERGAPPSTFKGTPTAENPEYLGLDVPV
Experimental: as §8

BTK = target: T1, BTK (Mus musculus, UniProt P35991); assay: In vivo occupancy of BTK in mouse splenocytes; conditions: BALB/c mice, oral 50 mg/kg, 12 h after administration
T1 construct: from tissue; host or cells: splenocytes from spleens of normal BALB/c mice
Experimental: Cells were treated as indicated before the addition of a fluorescent probe (FL-SY-1530). After incubation, cells were collected and lysed for 5 min in cell lysis buffer. For analysis of the in vivo occupancy of BTK inhibitors, normal BALB/c mice (6–8 weeks old) were orally administered BTK inhibitors, […] seeded on 12-well plates and incubated with the fluorescent probe for 1 h. Then the samples were subjected to SDS-PAGE, and the gels were scanned with a Typhoon imaging system (excitation at 532 nm and emission at 555 nm). After scanning, the gels were detected with Western blot.
Figure 3 SY-1530 binds BTK in a dose-dependent and time-dependent manner. (A) The content of SY-1530 was measured with LC-MS/MS after incubation with BTK for the indicated time periods. Data are shown as the mean ± SEM. (B) SY-1530 was incubated with different concentrations of BTK, and LC-MS/MS was then performed to detect SY-1530 content. Data are shown as the mean ± SEM of 3 independent experiments. Statistical analysis was performed with Student’s t-test (**P < 0.01, ***P < 0.001). […] Cells were lysed and then analyzed by Western blot and fluorescent gel scanning. […] The concentration of SY-1530 in the plasma was measured with LC-MS/MS. […] Cells were lysed and analyzed by Western blot and fluorescent gel scanning. The concentration of SY-1530 in the plasma was measured with LC-MS/MS.

RET = RET (Homo sapiens, UniProt P07949); assay: Protein kinase panel at 1 µM, RET; format: biochemical
CYP2D6 = CYP2D6 (Homo sapiens, UniProt P10635); format: in vitro ADME
Text: (§1) Table S8 Inhibition of CYP isozymes by SY-1530 […]
(§2) (1 picture or pasted object on this page, not shown here)

CYP2C19 = CYP2C19 (Homo sapiens, UniProt P33261); format: in vitro ADME
Text: as §1, §2

CYP2B6 = CYP2B6 (Homo sapiens, UniProt P20813); format: in vitro ADME
Text: as §1, §2

CYP1A2 = CYP1A2 (Homo sapiens, UniProt P05177); format: in vitro ADME
CYP1A2, sequence (P05177 whole entry): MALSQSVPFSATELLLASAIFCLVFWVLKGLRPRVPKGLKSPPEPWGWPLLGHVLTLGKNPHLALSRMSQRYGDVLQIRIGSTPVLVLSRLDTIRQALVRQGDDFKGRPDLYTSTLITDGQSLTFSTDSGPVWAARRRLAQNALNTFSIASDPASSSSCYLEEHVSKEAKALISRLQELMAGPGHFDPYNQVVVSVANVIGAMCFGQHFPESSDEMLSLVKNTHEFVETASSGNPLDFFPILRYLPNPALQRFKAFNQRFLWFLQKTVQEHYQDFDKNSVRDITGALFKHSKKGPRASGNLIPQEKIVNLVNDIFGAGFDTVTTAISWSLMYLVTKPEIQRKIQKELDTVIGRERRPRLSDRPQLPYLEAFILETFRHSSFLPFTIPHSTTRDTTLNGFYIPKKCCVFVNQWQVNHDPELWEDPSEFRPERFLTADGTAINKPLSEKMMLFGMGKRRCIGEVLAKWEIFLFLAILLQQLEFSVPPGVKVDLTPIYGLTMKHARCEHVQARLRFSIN
Text: (§3) Cancer Biol Med Vol 19, No 7 July 2022 3
(§4) Table S8 Inhibition of CYP isozymes by SY-1530
(§5) Table S9 Preclinical safety of SY-1530
(§6) Group Single-dose toxicity Multiple-dose toxicity
(§7) Animal Rat Beagle dog Rat Beagle dog
as §2

CYP2C8 = CYP2C8 (Homo sapiens, UniProt P10632); format: in vitro ADME
CYP2C8, sequence (P10632 whole entry): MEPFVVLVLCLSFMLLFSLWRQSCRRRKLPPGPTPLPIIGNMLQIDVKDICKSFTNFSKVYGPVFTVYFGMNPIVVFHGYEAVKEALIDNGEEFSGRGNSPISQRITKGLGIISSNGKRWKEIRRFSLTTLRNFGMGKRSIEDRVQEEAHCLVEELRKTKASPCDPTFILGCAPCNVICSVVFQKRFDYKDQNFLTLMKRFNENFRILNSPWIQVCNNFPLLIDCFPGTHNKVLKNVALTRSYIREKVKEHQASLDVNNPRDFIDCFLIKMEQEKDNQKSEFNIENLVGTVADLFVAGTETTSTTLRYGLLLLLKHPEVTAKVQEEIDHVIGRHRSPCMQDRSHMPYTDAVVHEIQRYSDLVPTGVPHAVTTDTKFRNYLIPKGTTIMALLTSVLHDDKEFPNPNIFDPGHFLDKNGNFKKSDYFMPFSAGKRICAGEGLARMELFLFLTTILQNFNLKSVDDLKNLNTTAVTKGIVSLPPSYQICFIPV
Text: as §3, §4, §5, §6, §7, §2

CYP2C9 = CYP2C9 (Homo sapiens, UniProt P11712); format: in vitro ADME
Text: as §3, §4, §5, §6, §7, §2

FLT1 = FLT1 (Homo sapiens, UniProt P17948); assay: Protein kinase panel at 1 µM, FLT1; format: biochemical
FLT1, sequence (P17948 27-1338): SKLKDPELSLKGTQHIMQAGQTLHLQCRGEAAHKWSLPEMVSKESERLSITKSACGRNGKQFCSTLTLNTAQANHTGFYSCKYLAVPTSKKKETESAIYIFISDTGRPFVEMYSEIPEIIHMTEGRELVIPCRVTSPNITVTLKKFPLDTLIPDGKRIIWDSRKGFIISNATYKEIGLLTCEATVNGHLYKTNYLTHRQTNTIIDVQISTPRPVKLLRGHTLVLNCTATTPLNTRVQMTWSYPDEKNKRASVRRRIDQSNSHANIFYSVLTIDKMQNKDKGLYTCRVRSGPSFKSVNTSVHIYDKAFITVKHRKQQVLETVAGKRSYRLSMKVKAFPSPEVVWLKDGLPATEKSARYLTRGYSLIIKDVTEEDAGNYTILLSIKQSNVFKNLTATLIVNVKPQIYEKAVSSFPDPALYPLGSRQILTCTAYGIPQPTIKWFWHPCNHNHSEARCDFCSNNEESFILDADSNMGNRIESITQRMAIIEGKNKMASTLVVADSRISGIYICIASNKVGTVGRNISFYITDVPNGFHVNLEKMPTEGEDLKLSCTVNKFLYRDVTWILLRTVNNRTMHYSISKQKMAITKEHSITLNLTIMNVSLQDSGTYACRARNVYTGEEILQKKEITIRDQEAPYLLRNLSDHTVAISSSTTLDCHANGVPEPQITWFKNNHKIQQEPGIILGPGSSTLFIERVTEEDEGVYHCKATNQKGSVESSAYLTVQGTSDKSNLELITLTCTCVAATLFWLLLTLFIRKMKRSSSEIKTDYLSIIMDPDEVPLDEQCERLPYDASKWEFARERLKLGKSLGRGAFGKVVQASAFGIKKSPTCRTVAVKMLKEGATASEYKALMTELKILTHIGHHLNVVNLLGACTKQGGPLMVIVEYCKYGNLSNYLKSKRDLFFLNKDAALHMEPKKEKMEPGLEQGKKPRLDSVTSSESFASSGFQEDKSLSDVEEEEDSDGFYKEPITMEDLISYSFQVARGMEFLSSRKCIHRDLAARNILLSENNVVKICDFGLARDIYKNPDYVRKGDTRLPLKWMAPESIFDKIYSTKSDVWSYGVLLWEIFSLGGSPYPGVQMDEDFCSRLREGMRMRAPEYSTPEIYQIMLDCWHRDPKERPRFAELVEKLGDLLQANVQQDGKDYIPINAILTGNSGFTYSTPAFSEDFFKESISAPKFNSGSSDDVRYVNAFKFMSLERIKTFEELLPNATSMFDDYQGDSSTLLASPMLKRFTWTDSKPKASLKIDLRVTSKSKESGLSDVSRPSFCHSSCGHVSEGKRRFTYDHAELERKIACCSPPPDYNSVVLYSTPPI

For `COC/C=C/C(=O)N1CC[C@@H](n2nc(-c3ccc(Oc4ccccc4)cc3)c(C(N)=O)c2N)C1` [SY-1530], the “Inhibition (%), LCK” value (LCK) was 94%, the “Inhibition (%), BLK” value (BLK) was 53% and the “Plasma protein binding (%)” value [1] was 95.0%. The Outcome ([2]; Dog 01, stage IVb, dose 20/35 mg/kg, treatment interval 21 d) was “SD/PR”, the Outcome ([2]; Dog 02, stage IVa, dose 20/30/40 mg/kg, treatment interval 150 d) was “CR” and the Outcome ([2]; Dog 04, stage IVa, dose 20/30/40 mg/kg, treatment interval 21 d) was “SD”. The Outcome ([2]; Dog 06, stage IVa, dose 20/30/40 mg/kg, treatment interval 21 d) was “SD”, the Outcome ([2]; Dog 07, stage IVa, dose 20/30 mg/kg, treatment interval 14 d) was “SD” and the Outcome ([2]; Dog 08, stage IVa, dose 35 mg/kg, treatment interval 21 d) was “SD”. For the same compound, the Outcome ([2]; Dog 09, stage IVa, dose 35 mg/kg, treatment interval 21 d) was “SD”, the Outcome ([2]; Dog 10, stage IVa, dose 35 mg/kg, treatment interval 28 d) was “PR” and the Outcome ([2]; Dog 11, stage IIIa, dose 35 mg/kg, treatment interval 14 d) was “PR”. The Outcome ([2]; Dog 12, stage IVa, dose 35 mg/kg, treatment interval 21 d) was “SD”, the “Number of dogs with complete response” value ([2]; of 10 dogs) was 1 and the “Number of dogs with partial response” value ([2]; of 10 dogs) was 3. For the same compound, the “Number of dogs with stable disease” value ([2]; of 10 dogs) was 6, the “AUC0–∞” value ([3]; iv, 5 mg/kg) was 4112 ng·h/mL and the “AUC0–∞” value ([3]; po, 30 mg/kg) was 4460 ng·h/mL. The “Cmax” value ([3]; po, 30 mg/kg) was 658 ng/mL, the “F (%)” value ([3]; po, 30 mg/kg) was 18.1% and the “Tmax” value ([3]; po, 30 mg/kg) was 3.33 h. The “t½” value ([3]; po, 30 mg/kg) was 4.79 h, the “AUC0–∞” value ([3]; po, 100 mg/kg) was 6842 ng·h/mL and the “Cmax” value ([3]; po, 100 mg/kg) was 1085 ng/mL. The “F (%)” value ([3]; po, 100 mg/kg) was 8.32%, the “Tmax” value ([3]; po, 100 mg/kg) was 1.75 h and the “t½” value ([3]; po, 100 mg/kg) was 3.08 h. For the same compound, the “AUC0–∞” value ([3]; po, 300 mg/kg) was 9257 ng·h/mL, the “Cmax” value ([3]; po, 300 mg/kg) was 1129 ng/mL and the “F (%)” value ([3]; po, 300 mg/kg) was 3.75%. The “Tmax” value ([3]; po, 300 mg/kg) was 5.25 h, the “t½” value ([3]; po, 300 mg/kg) was 3.9 h and the “Inhibition (%), HCK” value (HCK) was 67%. The “Ratio, BMX” value (BMX; IC50 SY-1530 over literature IC50 of ibrutinib) was 9.4, the IC50 (BMX; read-out: IC50 (nM), BMX, HTRF) was 7.51 nM and the “Ratio, HER2” value (HER2; IC50 SY-1530 over IC50 ibrutinib) was over 2500. For the same compound, the IC50 (HER2; read-out: IC50 (nM), HER2, HTRF) was over 10000 nM, the “BTK protein in splenocytes bound by inhibitor” value (BTK) was “still bound” and the “Inhibition (%), RET” value (RET) was 57%. It also gave an IC50 (CYP2D6) of over 25 µM, an IC50 (CYP2C19) of 23.8 µM and an IC50 (CYP2B6) of over 25 µM. It also gave an IC50 (CYP1A2) of over 25 µM, an IC50 (CYP2C8) of over 25 µM and an IC50 (CYP2C9) of over 25 µM. The “Inhibition (%), FLT1” value (FLT1) was 33%.
